Data reported in patent US11325899B2, “Benzofurane and benzothiophene derivatives as PGE2 receptor modulators” (IDORSIA PHARMACEUTICALS LTD, priority 2017, dated 2022).

Assays:
Type in all cases: cell-based
PTGER2 (EP2) = biological target: T1, PTGER2 (EP2) (Homo sapiens, UniProt P43116); experiment: hEP2 b-arrestin assay (PathHunter HEK 293 PTGER2 b-arrestin cells); conditions: antagonistic activity, beta-arrestin assay; read-out: hEP2 b-arr IC50
T1 construct: host or cells: HEK 293 (PathHunter PTGER2 b-arrestin cell line)
Summary of the method: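 PathHunter HEK293 cells with ProLink-tagged EP2 and EA-β-arrestin 2 preincubated 15 min at 37 °C with compound (10 μM-2 nM or 1 μM-0.2 nM), then stimulated 120 min with 5 μM PGE2 (EC80). β-gal complementation read by chemiluminescence; IC50 from duplicate dose-response versus DMSO.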

PTGER4 (EP4) = biological target: T2, PTGER4 (EP4) (Homo sapiens, UniProt P35408); experiment: hEP4 b-arrestin assay (PathHunter HEK 293 PTGER4 b-arrestin cells); conditions: antagonistic activity, beta-arrestin assay; read-out: hEP4 b-arr IC50
T2 construct: host or cells: HEK 293 (PathHunter PTGER4 b-arrestin cell line)
Summary of the method: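 PathHunter HEK 293 cells expressing ProLink-tagged human EP4 and EA-β-arrestin 2, seeded 24 h before. Compounds (10 μM–2 nM or 1 μM–0.2 nM) preincubated 15 min at 37 °C, then 20 nM PGE2 (EC80) for 120 min at 37 °C. β-gal complementation luminescence read; IC50 from duplicate dose-response curves versus DMSO control.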

EP2 receptor = biological target: T3, EP2 receptor (Homo sapiens, UniProt P43116); experiment: hEP2 cAMP assay (SF295 glioblastoma cells, HTRF cAMP, PGE2 stimulation); conditions: antagonistic activity
T3 construct: SF295 glioblastoma cells express high endogenous EP2 and no EP4; host or cells: SF295 glioblastoma cells
Summary of the method: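 SF295 glioblastoma cells with endogenous EP2 and no EP4, in HBSS/HEPES/BSA with 2 mM IBMX, pre-incubated 45 min at room temperature with compound, then stimulated 30 min with 75 nM PGE2 (EC80). cAMP measured by HTRF; IC50 fitted from duplicate % cAMP versus DMSO control.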

T2 sequence (P35408 whole entry): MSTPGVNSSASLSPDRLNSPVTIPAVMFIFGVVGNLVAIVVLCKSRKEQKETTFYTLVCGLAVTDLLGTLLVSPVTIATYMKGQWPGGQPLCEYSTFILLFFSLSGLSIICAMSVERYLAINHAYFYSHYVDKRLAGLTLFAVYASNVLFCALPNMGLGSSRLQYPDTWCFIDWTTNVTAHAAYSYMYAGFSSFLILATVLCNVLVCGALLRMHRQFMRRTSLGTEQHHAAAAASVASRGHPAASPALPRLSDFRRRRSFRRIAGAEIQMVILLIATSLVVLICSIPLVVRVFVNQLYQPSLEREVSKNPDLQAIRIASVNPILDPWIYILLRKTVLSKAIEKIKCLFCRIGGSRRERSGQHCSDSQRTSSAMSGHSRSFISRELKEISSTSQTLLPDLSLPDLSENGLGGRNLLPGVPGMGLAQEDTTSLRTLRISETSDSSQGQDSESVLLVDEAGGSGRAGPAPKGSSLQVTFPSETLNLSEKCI
T3 sequence (P43116 whole entry): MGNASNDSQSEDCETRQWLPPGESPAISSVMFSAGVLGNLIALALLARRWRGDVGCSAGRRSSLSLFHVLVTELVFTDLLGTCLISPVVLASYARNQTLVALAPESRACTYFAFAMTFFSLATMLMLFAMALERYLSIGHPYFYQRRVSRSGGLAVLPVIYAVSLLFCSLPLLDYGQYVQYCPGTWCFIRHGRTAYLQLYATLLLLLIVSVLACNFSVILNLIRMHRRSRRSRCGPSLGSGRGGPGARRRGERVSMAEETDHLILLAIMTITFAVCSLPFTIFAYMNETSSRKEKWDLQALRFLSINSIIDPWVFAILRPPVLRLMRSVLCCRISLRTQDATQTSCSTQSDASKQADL
T1 sequence (P43116 whole entry): as above

Compound	IC50 (PTGER2 (EP2)) [nM]	IC50 (PTGER4 (EP4)) [nM]	IC50 (EP2 receptor) [nM]
CCCOc1cc(-c2cc(NCCc3c(C)sc4c(C)cc(F)cc34)ncn2)ccc1CC(=O)O [Example 190, (4-{6-[2-(5-Fluoro-2,7-dimethyl-benzo[b]thiophen-3-yl)-ethylamino]-pyrimidin-4-yl}-2-propoxy-phenyl)-acetic acid]	28	200	274
COc1cc(Cl)cc2c(CCNc3cc(-c4ccc(C(=O)O)c(OC5CCC5)c4)ncn3)c(C)oc12 [Example 133, 4-{6-[2-(5-Chloro-7-methoxy-2-methyl-benzofuran-3-yl)-ethylamino]-pyrimidin-4-yl}-2-cyclobutoxy-benzoic acid]	25	74	68
COc1ccc(Cl)c2c(CCNc3cc(-c4ccc(C(=O)O)c(OC5CCC5)c4)ncn3)c(C)sc12 [Example 135, 4-{6-[2-(4-Chloro-7-methoxy-2-methyl-benzo[b]thiophen-3-yl)-ethylamino]-pyrimidin-4-yl}-2-cyclobutoxy-benzoic acid]	14	235	30
Cc1sc2c(C)ccc(F)c2c1CCNc1cc(-c2cc(F)c(C(=O)O)c(OC3CCC3)c2)ncn1 [Example 148, 2-Cyclobutoxy-6-fluoro-4-{6-[2-(4-fluoro-2,7-dimethyl-benzo[b]thiophen-3-yl)-ethylamino]-pyrimidin-4-yl}-benzoic acid]	30	43	109
COc1cc(F)c(F)c2c(CCNc3cc(-c4ccc(C(=O)O)c(OC5CCC5)c4)ncn3)c(C)oc12 [Example 141, 2-Cyclobutoxy-4-{6-[2-(4,5-difluoro-7-methoxy-2-methyl-benzofuran-3-yl)-ethylamino]-pyrimidin-4-yl}-benzoic acid]	140	340	111
Cc1sc2c(C)cc(F)cc2c1CCNc1cc(-c2ccc(C(=O)O)c(OC3CCC3)c2)ncn1 [Example 138, 2-Cyclobutoxy-4-{6-[2-(5-fluoro-2,7-dimethyl-benzo[b]thiophen-3-yl)-ethylamino]-pyrimidin-4-yl}-benzoic acid]	14	269	75
Cc1oc2c(Cl)cccc2c1CCNc1cc(-c2ccc(C(=O)O)c(OC3CCC3)c2)ncn1 [Example 137, 4-{6-[2-(7-Chloro-2-methyl-benzofuran-3-yl)-ethylamino]-pyrimidin-4-yl}-2-cyclobutoxy-benzoic acid]	15	258	49
COc1ccc(Cl)c2c(CCNc3cc(-c4ccc(C(=O)O)c(O)c4)ncn3)c(C)sc12 [Example 9, 4-{6-[2-(4-Chloro-7-methoxy-2-methyl-benzo[b]thiophen-3-yl)-ethylamino]-pyrimidin-4-yl}-2-hydroxy-benzoic acid]	118	1650	44
CSc1cc(-c2cc(NCCc3c(C#N)sc4c(C)cc(F)cc34)ncn2)ccc1C(=O)O [Example 12, 4-{6-[2-(2-Cyano-5-fluoro-7-methyl-benzo[b]thiophen-3-yl)-ethylamino]-pyrimidin-4-yl}-2-methylsulfanyl-benzoic acid]	4	112	4
CCOc1cc(-c2cc(NCCc3c(C)sc4c(C)ccc(F)c34)ncn2)ccc1CC(=O)O [Example 107, (2-Ethoxy-4-{6-[2-(4-fluoro-2,7-dimethyl-benzo[b]thiophen-3-yl)-ethylamino]-pyrimidin-4-yl}-phenyl)-acetic acid]	38	167	249

Further compounds by falling IC50 (PTGER2 (EP2)), results first:

IC50 (PTGER2 (EP2)) [nM]	IC50 (PTGER4 (EP4)) [nM]	IC50 (EP2 receptor) [nM]	Compound
106	247	177	COc1ccc(Cl)c2c(CCNc3cc(-c4cc(C)c(C(=O)O)s4)ncn3)c(C)sc12 [Example 5, 5-{6-[2-(4-Chloro-7-methoxy-2-methyl-benzo[b]thiophen-3-yl)-ethylamino]-pyrimidin-4-yl}-3-methyl-thiophene-2-carboxylic acid]
31	254	183	Cc1sc2c(C)cccc2c1CCNc1cc(-c2ccc(C(=O)O)c(SCC(C)C)c2)ncn1 [Example 166, 4-{6-[2-(2,7-Dimethyl-benzo[b]thiophen-3-yl)-ethylamino]-pyrimidin-4-yl}-2-isobutylsulfanyl-benzoic acid]
26	810	54	CCCOc1cc(-c2cc(NCCc3c(C)sc4c(Cl)ccc(Cl)c34)ncn2)ccc1C(=O)O [Example 102, 4-{6-[2-(4,7-Dichloro-2-methyl-benzo[b]thiophen-3-yl)-ethylamino]-pyrimidin-4-yl}-2-propoxy-benzoic acid]
26	17	20	CCc1nc(-c2cc(NCCc3c(C)sc4c(C)cc(F)cc34)ncn2)sc1-c1noc(=O)[nH]1 [Example 163, 3-(4-Ethyl-2-{6-[2-(5-fluoro-2,7-dimethyl-benzo[b]thiophen-3-yl)-ethylamino]-pyrimidin-4-yl}-thiazol-5-yl)-[1,2,4]oxadiazol-5(4H)-one [tautomeric form: 3-(4-ethyl-2-(6-((2-(5-fluoro-2,7-dimethylbenzo[b]thiophen-3-yl)ethyl)amino)pyrimidin-4-yl)thiazol-5-yl)-[1,2,4]oxadiazol-5-ol]]
22	242	309	CCCc1cc(-c2cc(NCCc3c(C)sc4c(C)cc(F)cc34)ncn2)ccc1CC(=O)O [Example 186, (4-{6-[2-(5-Fluoro-2,7-dimethyl-benzo[b]thiophen-3-yl)-ethylamino]-pyrimidin-4-yl}-2-propyl-phenyl)-acetic acid]
21	143	119	CCOc1cc(-c2cc(NCCc3c(C)sc4c(C)c(F)ccc34)ncn2)ccc1OCC(=O)O [Example 119, (2-Ethoxy-4-{6-[2-(6-fluoro-2,7-dimethyl-benzo[b]thiophen-3-yl)-ethylamino]-pyrimidin-4-yl}-phenoxy)-acetic acid]
14	83	40	CCOc1cc(-c2cc(NCCc3c(C)sc4c(C)cccc34)ncn2)ccc1OCC(=O)O [Example 122, (4-{6-[2-(2,7-Dimethyl-benzo[b]thiophen-3-yl)-ethylamino]-pyrimidin-4-yl}-2-ethoxy-phenoxy)-acetic acid]
12	41	38	CCOc1cc(-c2cc(NCCc3c(C)sc4c(C)cc(F)cc34)ncn2)ccc1-c1nnn[nH]1 [Example 142, {6-[3-Ethoxy-4-(1H-tetrazol-5-yl)-phenyl]-pyrimidin-4-yl}-[2-(5-fluoro-2,7-dimethyl-benzo[b]thiophen-3-yl)-ethyl]-amine]
12	1220	22	Cc1sc2c(C)cccc2c1CCNc1cc(-c2ccc(C(=O)O)c(SC3COC3)c2)ncn1 [Example 131, 4-{6-[2-(2,7-Dimethyl-benzo[b]thiophen-3-yl)-ethylamino]-pyrimidin-4-yl}-2-(oxetan-3-ylsulfanyl)-benzoic acid]
9	19	37	CCOc1cc(-c2cc(NCCc3c(C#N)sc4c(C)cc(F)cc34)ncn2)ccc1OCCC(=O)O [Example 176, 3-(4-{6-[2-(2-Cyano-5-fluoro-7-methyl-benzo[b]thiophen-3-yl)-ethylamino]-pyrimidin-4-yl}-2-ethoxy-phenoxy)-propionic acid]
8	42	18	CCOc1cc(-c2cc(NCCc3c(C)sc4c(C)cc(F)cc34)ncn2)sc1C(=O)NS(C)(=O)=O [Example 157, N-(3-Ethoxy-5-{6-[2-(5-fluoro-2,7-dimethyl-benzo[b]thiophen-3-yl)-ethylamino]-pyrimidin-4-yl}-thiophene-2-carbonyl)-methanesulfonamide]
6	7	4	CCOc1cc(-c2cc(NCCc3c(C)sc4c(C)cc(F)cc34)ncn2)sc1-c1nnn[nH]1 [Example 158, {6-[4-Ethoxy-5-(1H-tetrazol-5-yl)-thiophen-2-yl]-pyrimidin-4-yl}-[2-(5-fluoro-2,7-dimethyl-benzo[b]thiophen-3-yl)-ethyl]-amine]
6	5	35	CCOc1nc(-c2cc(NCCc3c(C)sc4c(C)cc(F)cc34)ncn2)sc1-c1noc(=O)[nH]1 [Example 162, 3-(4-Ethoxy-2-{6-[2-(5-fluoro-2,7-dimethyl-benzo[b]thiophen-3-yl)-ethylamino]-pyrimidin-4-yl}-thiazol-5-yl)-[1,2,4]oxadiazol-5(4H)-one [tautomeric form: 3-(4-ethoxy-2-(6-((2-(5-fluoro-2,7-dimethylbenzo[b]thiophen-3-yl)ethyl)amino)pyrimidin-4-yl)thiazol-5-yl)-[1,2,4]oxadiazol-5-ol]]
5	34	11	CCCc1cc(-c2cc(NCCc3c(C#N)sc4c(C)cc(F)cc34)ncn2)ccc1C(=O)O [Example 167, 4-{6-[2-(2-Cyano-5-fluoro-7-methyl-benzo[b]thiophen-3-yl)-ethylamino]-pyrimidin-4-yl}-2-propyl-benzoic acid]
